Laboratory results published in patent US20240262793A1, “QUINAZOLINE COMPOUND, AND PREPARATION METHOD THEREFOR AND APPLICATION THEREOF” (SHANGHAI PHARMACEUTICALS HOLDING CO., LTD., priority 2021, published 2024).

Columns and labels:
Format in all cases: cell-based
IL-1β = assay: Inhibition of IL-1β in PMA-differentiated, LPS-stimulated THP-1 cells (ELISA of cell lysate); details: Homo sapiens, LPS 100 ng/mL
Experimental: (§1) (1) Cell culture and inoculation: A stock solution of PMA at 1 mg/mL was diluted with serum-free RP1640 medium to prepare a 100 ng/mL PMA solution. Normal cultured THP-1 cells were centrifuged, resuspended in a complete medium (RP1640 medium containing 10% FBS), and counted. The cell density was adjusted to 2×10^6 cells/mL. An equal volume of 100 ng/mL PMA solution was then added, resulting in a cell density of 1×10^6 cells/mL and a final PMA concentration of 50 ng/mL. 100 μL of the cell suspension was seeded into each well of a 96-well cell culture plate with 1×10^5 cells per well. The 96-well cell culture plate was then incubated at 37° C. in a 5% CO2 atmosphere for 24 hours.
(§2) (2) Drug treatment of cells: On the second day, LPS was added to the complete medium to adjust the final concentration to 100 ng/mL, and the compound was prepared using this LPS-containing medium. The compound was added to the appropriate cell wells according to the prepared concentration gradient. The positive control group (LPS+) was a culture medium solution containing a final concentration of 100 ng/mL LPS and 0.1% DMSO without drugs, while the negative control group (LPS-) was a culture medium solution containing 0.1% DMSO without LPS. The volume in each well was 100 μL.
(§3) (3) Test sample collection: The mixture was centrifuged at 1000 rpm for 5 minutes and the cell supernatant and cell precipitate were collected separately. The cell supernatant was used to detect TNF-α and IL-6, and the cell precipitate was collected for IL-1β detection. After collecting the cell supernatant, the remaining liquid in the wells was discarded and 100 μL of cell lysis solution (20 mM Tris 8.0; 2 mM EDTA; 0.5% Triton X-100) was added to each well for complete lysis.
(§4) (4) Sample detection: The enzyme-linked immunosorbent assay (ELISA) was used to detect the content of each cytokine. The specific steps were performed according to the instructions provided in the corresponding kit manuals. The catalog numbers of kits are as follows: • Human TNF-alpha Quantikine ELISA Kit, Catalog # STA00D • Human IL-1 beta/IL-1F2 Quantikine ELISA Kit, Catalog # SLB50 • Human IL-6 Quantikine ELISA Kit, Catalog # S6050.
(§5) (5) Data analysis: The in vitro inhibitory activity of the compounds was calculated using the following formula: […]

TNF-α = assay: Inhibition of TNF-α in PMA-differentiated, LPS-stimulated THP-1 cells (ELISA of cell supernatant); details: Homo sapiens, THP-1, Table 7, PMA 50 ng/mL, LPS 100 ng/mL
Experimental: as §1, §2, §3, §4, §5

IL-6 = assay: Inhibition of IL-6 in PMA-differentiated, LPS-stimulated THP-1 cells (ELISA of cell supernatant); details: Homo sapiens, LPS 100 ng/mL
Experimental: as §1, §2, §3, §4, §5

Compound	IC50 (IL-1β; THP-1, Table 7, PMA 50 ng/mL) [µM]	IC50 (TNF-α) [µM]	IC50 (IL-6; THP-1, Table 7, PMA 50 ng/mL) [nM]	IC50 (IL-1β; THP-1, Table 8, PMA 50 ng/mL) [µM]	IC50 (IL-6; THP-1, Table 8, PMA 50 ng/mL) [nM]
CC(CCCNCCN1CCCC1)Nc1ccnc2cc(Cl)ccc12 (centres unmarked) [Example 3, N^4-(7-Chloroquinolin-4-yl)-N^1-(2-(pyrrolidin-1-yl)ethyl)pentane-1,4-diamine]		56.5	5530		
CCOc1ncccc1CNCCCC(C)Nc1ccnc2cc(Cl)ccc12 (centres unmarked) [Example 5, N^4-(7-Chloroquinolin-4-yl)-N^1-((2-ethoxypyridin-3-yl)methyl)pentane-1,4-diamine]	19.5	25.6	3950		
CC(CCCN1CC2(COC2)C1)Nc1ccnc2cc(Cl)ccc12 (centres unmarked) [Example 6, N-(5-(2-Oxa-6-azaspiro[3.3]heptan-6-yl)pentan-2-yl)-7-chloroquinolin-4-amine]		32.7	23900		
CCN1CCC2(C1)CN(CCCC(C)Nc1ccnc3cc(Cl)ccc13)C2 (centres unmarked) [Example 9, 7-Chloro-N-(5-(6-ethyl-2,6-diazaspiro[3.4]octan-2-yl)pentan-2-yl)quinolin-4-amine]	48.3	28.3	10500		
O=C1CCC(=O)N1CCCCNc1ccnc2cc(Cl)ccc12 [Example 11, 1-(4-((7-Chloroquinolin-4-yl)amino)butyl)pyrrolidine-2,5-dione]	24.3	29.9	10600		
CC(CCCN1C(=O)CNC1=O)Nc1ccnc2cc(F)ccc12 (centres unmarked) [Example 12, 3-(4-((7-Fluoroquinolin-4-yl)amino)pentyl)imidazolidine-2,4-dione]			20500		
CC(CCCN(CCO)Cc1ncn(C)n1)Nc1ccnc2cc(Cl)ccc12 (centres unmarked) [Example 33, 2-((4-((7-Chloroquinolin-4-yl)amino)pentyl)((1-methyl-1H-1,2,4-triazol-3-yl)methyl)amino)ethan-1-ol]			3850		
CC(CCCN(CCO)Cc1ncco1)Nc1ccnc2cc(F)ccc12 (centres unmarked) [Example 41]			30400		
O=C1CNC(=O)N1CCCCCNc1ncnc2cc(F)ccc12 [Example 50, 3-(5-((7-Fluoroquinazolin-4-yl)amino)pentyl)imidazolidine-2,4-dione]				122	3990
CC1(C)NC(=O)N(CCCCCNc2ncnc3cc(F)ccc23)C1=O [Example 53, 3-(5-((7-Fluoroquinazolin-4-yl)amino)pentyl)-5,5-dimethylimidazoline-2,4-dione]				118	520
O=C1NC2(CCNCC2)C(=O)N1CCCCNc1ncnc2cc(F)ccc12 [Example 60, 3-(4-((7-Fluoroquinazolin-4-yl)amino)butyl)-1,3,8-triazaspiro[4.5]decane-2,4-dione]					34000
O=C1NC2(CC2)C(=O)N1CCCCNc1ncnc2cc(F)ccc12 [Example 61, 6-(4-((7-Fluoroquinazolin-4-yl)amino)butyl)-4,6-diazaspiro[2.4]heptane-5,7-dione]				134	5840
O=C1NC2(CC2)C(=O)N1CCCCNc1ncnc2cc(Cl)ccc12 [Example 65, 6-(4-((7-Chloroquinazolin-4-yl)amino)butyl)-4,6-diazaspiro[2.4]heptane-5,7-dione]					2020
O=C1NC2(CC2)C(=O)N1CCCCCNc1ncnc2cc(Cl)ccc12 [Example 68, 6-(5-((7-Chloroquinazolin-4-yl)amino)pentyl)-4,6-diazaspiro[2.4]heptane-5,7-dione]					420
O=C1NC2(CCC2)C(=O)N1CCCCCNc1ncnc2cc(Cl)ccc12 [Example 70, 7-(5-((7-Chloroquinazolin-4-yl)amino)pentyl)-5,7-diazaspiro[3.4]octane-6,8-dione]					460
C[C@H](CCCN1C(=O)CNC1=O)Nc1ncnc2cc(Cl)ccc12 [Example 74, (R)-3-(4-((7-Chloroquinazolin-4-yl)amino)pentyl)imidazolidine-2,4-dione]					12400

The remaining lines, values ahead:

IC50 (IL-1β; THP-1, Table 7, PMA 50 ng/mL) [µM]	IC50 (TNF-α) [µM]	IC50 (IL-6; THP-1, Table 7, PMA 50 ng/mL) [nM]	IC50 (IL-1β; THP-1, Table 8, PMA 50 ng/mL) [µM]	IC50 (IL-6; THP-1, Table 8, PMA 50 ng/mL) [nM]	Compound
23.1	31.7	860			CC(CCCN1CCS(=O)(=O)CC1)Nc1ccnc2cc(Cl)ccc12 (centres unmarked) [Example 1, 4-(4-((7-Chloroquinolin-4-yl)amino)pentyl)thiomorpholine-1,1-dioxide]
17.9	10.4	1170			CC(CCCN1C(=O)CN(C)C1=O)Nc1ccnc2cc(Cl)ccc12 (centres unmarked) [Example 2, 3-(4-((7-Chloroquinolin-4-yl)amino)pentyl)-1-methylimidazolidine-2,4-dione]
14.4	5.54	1280			CC(CCCNCC1(C)COC1)Nc1ccnc2cc(Cl)ccc12 (centres unmarked) [Example 4, N^4-(7-Chloroquinolin-4-yl)-N^1-((3-methyloxetan-3-yl)methyl)pentane-1,4-diamine]
30.1	12.2	2060			CC(CCCN1CC2(CCOCC2)C1)Nc1ccnc2cc(Cl)ccc12 (centres unmarked) [Example 7, N-(5-(7-Oxa-2-azaspiro[3.5]nonan-2-yl)pentan-2-yl)-7-chloroquinolin-4-amine]
34.1	18.4	3290			CC(CCCN1CC2CCCC2C1)Nc1ccnc2cc(Cl)ccc12 (centres unmarked) [Example 8, 7-Chloro-N-(5-(hexahydrocyclopenta[c]pyrrol-2 (1H)-yl)pentan-2-yl)quinolin-4-amine]
15	8.91	380			CC(CCCN1CC(F)(F)C1)Nc1ccnc2cc(Cl)ccc12 (centres unmarked) [Example 10, 7-Chloro-N-(5-(3,3-difluoroazetidin-1-yl)pentan-2-yl)quinolin-4-amine]
28.6	7.83	1800			CC(CCCN1C(=O)CNC1=O)Nc1ncnc2cc(Cl)ccc12 (centres unmarked) [Example 13, 3-(4-((7-Chloroquinazolin-4-yl)amino)pentyl)imidazolidine-2,4-dione]
		2980			CC(CCCN1CC2(CCOCC2)C1)Nc1ncnc2cc(F)ccc12 (centres unmarked) [Example 14, N-(5-(7-Oxa-2-azaspiro[3.5]nonan-2-yl)pentan-2-yl)-7-fluoroquinazolin-4-amine]
	17.4	1240			CC(CCCN1C(=O)CCC1=O)Nc1ncnc2cc(Cl)ccc12 (centres unmarked) [Example 15, 1-(4-((7-Chloroquinazolin-4-yl)amino)pentyl)pyrrolidine-2,5-dione]
23.4	53.2	590			CC(CCCN(CCO)Cc1ncco1)Nc1ncnc2cc(Cl)ccc12 (centres unmarked) [Example 16, 2-((4-((7-Chloroquinazolin-4-yl)amino)pentyl)(oxazol-2-ylmethyl)amino)ethan-1-ol]
23.6	4.72	641			CC(CCCN(CCO)Cc1cccc(F)c1)Nc1ccnc2cc(Cl)ccc12 (centres unmarked) [Example 17, 2-((4-((7-Chloroquinolin-4-yl)amino)pentyl)(3-fluorobenzyl)amino)ethan-1-ol]
2.94	3.26	226			CC(CCCN(CCO)Cc1ccc(F)cc1F)Nc1ccnc2cc(Cl)ccc12 (centres unmarked) [Example 18, 2-((4-((7-Chloroquinolin-4-yl)amino)pentyl)(2,4-difluorobenzyl)amino)ethan-1-ol]
2.2	14.3	810			CC(CCCN(CCO)Cc1ccccn1)Nc1ccnc2cc(Cl)ccc12 (centres unmarked) [Example 19, 2-((4-((7-Chloroquinolin-4-yl)amino)pentyl)(pyridin-2-ylmethyl)amino)ethan-1-ol]
5.9	6.4	470			CC(CCCN(CCO)Cc1cccc(F)c1)Nc1ncnc2cc(Cl)ccc12 (centres unmarked) [Example 20, 2-((4-((7-Chloroquinazolin-4-yl)amino)pentyl)(3-fluorobenzyl)amino)ethan-1-ol]
0.65	1.41	190			CC(CCCN(CCO)Cc1ccc(F)cc1F)Nc1ncnc2cc(Cl)ccc12 (centres unmarked) [Example 21, 2-((4-((7-Chloroquinazolin-4-yl)amino)pentyl)(2,4-difluorobenzyl)amino)ethan-1-ol]
		630			CC(CCCN(CCO)Cc1cnccn1)Nc1ccnc2cc(Cl)ccc12 (centres unmarked) [Example 32, 2-((4-((7-Chloroquinolin-4-yl)amino)pentyl)(pyrazin-2-ylmethyl)amino)ethan-1-ol]
	7.28	120			CC(CCCN(CCO)Cc1c(F)cccc1Cl)Nc1ncnc2cc(Cl)ccc12 (centres unmarked) [Example 38]
	56.7	270			OCCN(CCCCCNc1ncnc2cc(Cl)ccc12)Cc1ncco1 [Example 46, 2-((5-((7-Chloroquinazolin-4-yl)amino)pentyl)(oxazol-2-ylmethyl)amino)ethan-1-ol]
